Measurements taken from publication PMC9925730, “Controlled sequential in situ self-assembly and disassembly of a fluorogenic cisplatin prodrug for cancer theranostics” (Nature Communications, 2023).
Values joined by “and” are separate entries in the source; they are usually repeats but may differ in a detail not shown here. Equal entries are not always repeated.

Legend:
[1] = tested on: orthotopic HepG2/Luc liver tumors; assay: Chemotherapy of orthotopic liver tumors (BL imaging, ex vivo BL and FL imaging);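 as to tumor BL intensity of liver: bioluminescence quantified by ROI over liver region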; assay type: in vivo, mice; settings: for tumor BL over the course of treatment: 2.25 mg kg^−1 Pt i.v. on day 0, 3, 6, 9, 12; for tumor BL intensity of liver: day 15; for Normalized FL intensity of mCy (ex vivo liver tumor, Fig. 5h): day 15, livers sprayed with P-CyPt 10 μM, normalized to PBS group; for Normalized BL intensity (ex vivo liver tumor, Fig. 5h): day 15, normalized to PBS group
Description: During the treatment, the body weights of mice were also measured every three days. On day 15, all mice were sacrificed, the whole liver were excised and photographed. Then, P-CyPt (10 μM) and D-luciferin (5 mM) were sprayed on the surface of each liver to performed ex vivo BL and NIR FL imaging. The BL images were acquired at 10 min using the BL imaging mode (Open), and the NIR FL images were acquired at 30 min, using a 660 nm excitation filter and a 750 ± 50 nm emission filter. The average BL and FL intensities were quantified by the ROIs measurement in the tumor region of liver using the Living Image Software (4.5.2, PerkinElmer, MA, U.S.A). Each experiment was conducted in four mice.

HeLa cells = assay: ICP-OES analysis of Pt in HeLa cells (uptake); assay type: cell-based; settings: for Amount of Pt / Total amount of Pt: Supplementary Table S1
Description: Supplementary Table 1. ICP-OES analysis of Pt in HeLa cells. a Pt drugs Pt element per cell Percentage of Pt element […]
a HeLa cells were untreated or pre-treated with Na3VO4 (10 mM) for 20 min and then incubated with indicated Pt drug (10 μM) for 1 h. Then, the cells were trypsinized, collected, and the cell numbers were counted and digested with trace metal concentrated HNO3 (65~70%) and HCl (36~38%). The amount of Pt element was determined by […]
b Pt per cell represents the average amount of Pt element in one HeLa cell, which was calculated by dividing the total amount of Pt element in cells by the cell number. c Percentage of Pt taken up by cells was calculated by dividing the total amount of Pt elements in cells by the amount of Pt drugs added. Values denote mean ± s.d. (n = 3 independent experiments). […]
The cell […]
lysates were separated according to a reported fragmentation procedure to obtained different cell fractions: pellet sample N (nuclei) was separated by 600 g for 10 min; pellet sample L (lysosomes and mitochondria) separated by 15000 g for 5 min; pellet sample M (plasma membrane) separated 100000g for 60 min and the remaining supernatant was soluble portion cytoplasm named as cell pellet C (cytosol) Pellets N, L, and M were all re-dispersed in 200 μL of D.I. water. Then, the solutions were collected and dropped on a carbon-coated copper grid, followed by freeze-drying respectively. The samples were then examined in a JEM-2800 Transmission Electron […]
Quantitative analysis of Pt in HeLa cells and different subcellular organelles. HeLa […]
cells were seeded in 10-cm dishes at a density of 4×10^6 cells/well and allowed to grow overnight. The cells were incubated with P-CyPt (10 μM), PtIVNPs (10 μM) and CDDP (10 μM) for 1 h, respectively. In P-CyPt + Na3VO4 group, HeLa cells were first incubated with Na3VO4 (10 mM) for 20 min, and then incubated with P-CyPt (10 μM) for another 60 min. After being washed with PBS for three times, the cells were trypsinized, centrifuged and counted. For Pt distribution analysis, the cells were treated with P-CyPt (10 μM) or CDDP (10 μM) for 1 h, and then washed with PBS for three times, followed by incubation with fresh medium for another 24 h. After that, cells were washed gently with 2 mL PBS once. The cells were trypsinized, centrifuged and counted. The cell lysates were separated according to a reported fragmentation procedure to obtained different cell fractions, including N (nuclei), M (plasma membrane), L (lysosomes and mitochondria) and C (cytosol). The Cells and different cell fractions were digested with concentrated HNO3 (65~70%) and HCl (36~38%) at 90 °C for 24 h. The solution was diluted to 5 mL 2% HNO3 and 5% HCl solution, and the concentration of Pt element was measured by ICP-OES, which was further applied to calculate the amount of Pt in cells and subcellular organelles.
Flow cytometry analysis of HeLa cell death. Approximately 2×10^5 cells/well HeLa cells in 2 mL DMEM medium were seeded onto 6-well plates and allowed to grow overnight. The medium was replaced with 1 mL of fresh medium containing P-CyPt (20 μM), PtIVNPs (20 μM) and CDDP (20 μM), respectively. After 2 h incubation, medium was removed and cells were washed with PBS for three times. Then, cells were incubated with fresh medium for another 48 h to induce different levels of apoptosis.
After gentle washing with PBS (×1), the cells were detached from the plates with trypsin (500 μL per well), and the cell pellets were collected after centrifugation at […] at 4 °C for 4 min. After washing with PBS, the pellets were re-suspended in 500 μL PBS buffer and stained with the annexin V-FITC/PI double staining apoptosis detection kit for flow cytometry. All assays were performed according to the manufacturer instructions, and the cell population was analyzed by annexin V-FITC and PI channels. The count number for each flow cytometry analysis was ~5000 to […]

Structure (SMILES)	tumor BL over the course of treatment [1]	tumor BL intensity of liver [1]	Normalized FL intensity of mCy (ex vivo liver tumor, Fig. 5h) [1]	Normalized BL intensity (ex vivo liver tumor, Fig. 5h) [1]	Amount of Pt (HeLa cells; individual samples)	Total amount of Pt (HeLa cells; individual samples)	Amount of Pt (HeLa cells; mean of 3 samples) [fmol/cell]	Total amount of Pt (HeLa cells; mean of 3 samples) [%]	metastatic tumor foci in the livers ([1]; day 15, ex vivo BL imaging)	Pt element per cell (HeLa cells; HeLa cells, Pt drug 10 μM, 1 h, ICP-OES) [fmol/cell]	Percentage of Pt element taken up by cells (HeLa cells; HeLa cells, Pt drug 10 μM, 1 h, of Pt drug added) [%]
[NH2][Pt]([NH2])([Cl])[Cl] [CDDP, cisplatin]	markedly increased	861747.5	0.90	0.87							
CC1(C)C(/C=C/C2=C3Oc4cc(O)c(Cl)cc4C=C3CCC2)=[N+](CCCNC(=O)[C@@H](Cc2ccccc2)NC(=O)[C@@H](Cc2ccccc2)NC(=O)CCC(=O)[O][Pt]([NH2])([NH2])([OH])([Cl])[Cl])c2ccccc21 [CyPt]					1.96 fmol/cell and 1.6407 fmol/cell and 1.595 fmol/cell	2.9% and 2.428% and 2.36%	1.7317	2.563			
CC1(C)C(/C=C/C2=C3Oc4cc(OP(=O)(O)O)c(Cl)cc4C=C3CCC2)=[N+](CCCNC(=O)[C@@H](Cc2ccccc2)NC(=O)[C@@H](Cc2ccccc2)NC(=O)CCC(=O)[O][Pt]([NH2])([NH2])([OH])([Cl])[Cl])c2ccccc21 [P-CyPt]	did not obviously increase	9376.5	0.23	0.22	20.8193 fmol/cell and 25.1404 fmol/cell and 27.8508 fmol/cell	31.255% and 37.742% and 41.811%	24.6035	36.936	No metastatic tumor foci	24.60 ± 3.5	36.9 ± 5.3
